Results taken from PMC10571957, “αV-Integrin-Dependent Inhibition of Glioblastoma Cell Migration, Invasion and Vasculogenic Mimicry by the uPAcyclin Decapeptide” (Cancers, 2023).
Several values for one entry are separate records, joined by “and”; a condition that tells them apart may be missing. Equal values may be shown once. Square brackets hold non-standard residues; d marks the D form. NMeV = CN[C@H](C(=O)O)C(C)C

Assays:
gynecologic malignancies = test system: gynecologic malignancies; parameters: method as in PMID 18760451, PMID 22446624; conditions: ref [66],[67], cited from earlier work
mice = test system: mice; parameters: method as in PMID 12183425; conditions: ref [65]; cited from earlier work
[1] = test system: patients with advanced glioblastoma; conditions: cited from earlier work
Source text: (§1) Since the identification of the integrin-binding domain (RGD) in fibronectin/vitronectin, RGD-containing peptides and derived compounds have been developed. […] In contrast, other trials have not shown cilengitide to be better in terms of progression-free survival or overall survival than the standard treatment ...

GBM models = conditions: cited from earlier work
Source text: as §1

[2] = test system: aggressive and recurrent meningiomas; conditions: combination with an mTOR inhibitor; ref [72]; cited from earlier work
Source text: As far as translation into clinics is concerned, it is worth mentioning that small peptides, such as uPAcyclin, are generally non-immunogenic and cost-effective to produce, and some of them have already entered clinical trials. […] Nevertheless, small peptides need to reach molecular targets to accomplish their effects. Thus, they often depend on physiological transports and ...

[3] = test system: U87-MG cells (αV integrin); experiment: FITC-uPAcyclin receptor binding/competition, U87-MG; parameters: species or system human; conditions: vitronectin 200 µM, anti-αV 5 µg/mL, anti-α2 1 µg/mL
Protocol: The U87-MG, U251-MG, and U138-MG cell lines were harvested and acid-treated, as described. Then, 2 × 10^6 cells/sample were exposed for 30 min at 4 °C to uPAcyclin or S-uPAcyclin at the indicated concentrations, or with the following antibodies: VNR147 monoclonal anti-αV integrin (Chemicon Int. Inc., Temecula, CA, USA), polyclonal anti-αV (Millipore, Burlington, MA, USA), monoclonal anti-α2 (Chemicon Int. Inc., Temecula, CA, USA), polyclonal anti-actin (Sigma-Aldrich, St. Louis, MO, USA), monoclonal anti-GAPDH (Abcam, Cambridge, UK), and purified vitronectin (VN, Corning, Glendale, AZ, USA). The cells were subsequently incubated with 50 nM FITC-uPAcyclin for 2 h at 4 °C, as described. At the end of incubation, the cells were washed and the cell surface-associated fluorescence was determined using a fluorimeter (VICTOR^TM X3-PerkinElmer, Waltham, MA, USA). All binding assays were performed three times, with duplicate samples, and analyzed as described in Section 2.11.
Figure 2 αV expression of U87-MG, U251-MG, and U138-MG GBM cells and specific binding of FITC-uPAcyclin. (A) U87-MG, U251-MG, U138-MG, HEK-293, and HEK-293/αV total cell lysates were subjected to Western blotting and probed using polyclonal anti-αV or polyclonal anti-actin as loading control. (B) A total of 2 × 10^6 U87-MG, U251-MG, U138-MG, HEK-293/αV, or HEK-293 cells were pre-incubated for 30 min at 4 °C with 500 nM uPAcyclin and further exposed to 50 nM FITC-uPAcyclin for 2 h at 4 °C. At the end of the incubation, the unbound material was washed and cell-associated FITC-uPAcyclin was quantitated by a fluorimeter. The net value of cell-surface-associated fluorescence, corresponding to the specific binding, is shown. (C) A total of 2 × 10^6 U87-MG, U251-MG, and U138-MG cells were pre-incubated for 30 min at 4 °C with increasing concentrations of unlabeled uPAcyclin and then assayed for binding of FITC-uPAcyclin, for 2 h at 4 °C. Cell-surface-associated fluorescence, as percentage of the samples […], is shown. (D) U87-MG cells were pre-incubated with uPAcyclin (1 pM, 100 nM), scrambled uPAcyclin (S-uPAcyclin, 1 pM and 100 nM)), vitronectin (200 µM), anti-αv polyclonal (anti-αV Pclonal, 5 µg/mL) or monoclonal (anti-αV MoAb, 5 µg/mL) or anti-α2 monoclonal (anti-α2 MoAb, 1 µg/mL), polyclonal anti-actin, and monoclonal anti GAPDH. Then, cells were treated as in B (* p-value < 0.05; *** p-value < 0.001).

Ac-K^136PSSPPEE^143-NH2 [Å6]
tolerability (gynecologic malignancies; phase I, gynecologic malignancies): well tolerated
disease progression (gynecologic malignancies; phase II): delayed disease progression in the treated individuals
anti-angiogenetic and anti-metastatic activity (mice): clearcut anti-angiogenetic and anti-metastatic activities in mice

cilengitide: known αVβ3/αVβ5 integrin inhibitor (cyclo(RGD[dF][NMeV]); chains of the INN, looked up)
overall survival effect ([1]; patients with advanced glioblastoma, ref [52]): seemed to suggest a positive effect on overall survival
progression-free or overall survival vs standard treatments ([1]; ref [53]): have not shown cilengitide to be better in terms of progression-free survival or overall survival than the standard treatments
effect in GBM models (GBM models; ref [51]): cytotoxic, anti-angiogenetic, and anti-invasive effect in GBM models
tumor angiogenesis at lower doses (GBM models; suggested reason for failure in GBM patients, ref [54]): detrimental stimulation of tumor angiogenesis at lower doses

octreotide
efficacy and tolerability [2]: effective and well tolerated

vitronectin: purified vitronectin (Corning)
competition with FITC-uPAcyclin binding, in words ([3]; U87-MG, S-uPAcyclin 1 pM and 100 nM): only at a high concentration
FITC-uPAcyclin binding, single values ([3]; T-test sheet, single replicates of all EXPTs): 42 and 50 and 45 and 47
